# Source: PMC4823954, “From fighting depression to conquering tumors: a novel tricyclic thiazepine compound as a tubulin polymerization inhibitor” (Cell Death & Disease, 2016)
# Experiments:
# Experiment in all cases: KINOMEscan
# Type in all cases: binding
# Details in all cases: read-out: % Ctrl
# PRKCH = molecular target: T1, PRKCH (Homo sapiens, UniProt P24723)
# T1 construct: purchased DiscoveRx KINOMEscan
# Procedure, shortened: (§1)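 Competition binding panel of 442 non-mutant kinases: test compound at 5 and 10 μM competed with an active-site-directed ligand for 1 h with shaking. Bound kinase was eluted with 0.5 μM ligand and quantified by qPCR; %Ctrl = (compound − positive control)/(DMSO − positive control) × 100, lower meaning tighter binding.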
# QSK = molecular target: T2, QSK (Homo sapiens, UniProt Q9Y2K2)
# T2 construct: purchased DiscoveRx KINOMEscan
# Procedure, shortened: as §1
# CHEK1 = molecular target: T3, CHEK1 (Homo sapiens, UniProt O14757)
# T3 construct: purchased DiscoveRx KINOMEscan
# Procedure, shortened: as §1
# ERK2 = molecular target: T4, ERK2 (Homo sapiens, UniProt P28482)
# T4 construct: purchased DiscoveRx KINOMEscan
# Procedure, shortened: as §1
# AURKA = molecular target: T5, AURKA (Homo sapiens, UniProt O14965)
# T5 construct: purchased DiscoveRx KINOMEscan
# Procedure, shortened: as §1
# MET = molecular target: T6, MET (Homo sapiens, UniProt P08581)
# T6 construct: purchased DiscoveRx KINOMEscan
# Procedure, shortened: as §1
# TYRO3 = molecular target: T7, TYRO3 (Homo sapiens, UniProt Q06418)
# T7 construct: purchased DiscoveRx KINOMEscan
# Procedure, shortened: as §1
# ROS1 = molecular target: T8, ROS1 (Homo sapiens, UniProt P08922)
# T8 construct: purchased DiscoveRx KINOMEscan
# Procedure, shortened: as §1
# [1] = molecular target: T9, JAK1(JH1domain-catalytic) (Homo sapiens, UniProt P23458)
# T9 construct: JAK1(JH1domain-catalytic); purchased DiscoveRx KINOMEscan
# Procedure, shortened: as §1
# ACVR1B = molecular target: T10, ACVR1B (Homo sapiens, UniProt P36896)
# T10 construct: purchased DiscoveRx KINOMEscan
# Procedure, shortened: as §1
# PAK3 = molecular target: T11, PAK3 (Homo sapiens, UniProt O75914)
# T11 construct: purchased DiscoveRx KINOMEscan
# Procedure, shortened: as §1
# FLT3 = molecular target: T12, FLT3 (Homo sapiens, UniProt P36888)
# T12 construct: purchased DiscoveRx KINOMEscan
# Procedure, shortened: as §1
# LRRK2 = molecular target: T13, LRRK2 (Homo sapiens, UniProt Q5S007)
# T13 construct: purchased DiscoveRx KINOMEscan
# Procedure, shortened: as §1
# GRK7 = molecular target: T14, GRK7 (Homo sapiens, UniProt Q8WTQ7)
# T14 construct: purchased DiscoveRx KINOMEscan
# Procedure, shortened: as §1
# CIT = molecular target: T15, CIT (Homo sapiens, UniProt O14578)
# T15 construct: purchased DiscoveRx KINOMEscan
# Procedure, shortened: as §1
# PIP5K2B = molecular target: T16, PIP5K2B (Homo sapiens, UniProt P78356)
# T16 construct: purchased DiscoveRx KINOMEscan
# Procedure, shortened: as §1
# p38-gamma = molecular target: T17, p38-gamma (Homo sapiens, UniProt P53778)
# T17 construct: purchased DiscoveRx KINOMEscan
# Procedure, shortened: as §1
# EPHA4 = molecular target: T18, EPHA4 (Homo sapiens, UniProt P54764)
# T18 construct: purchased DiscoveRx KINOMEscan
# Procedure, shortened: as §1
# CAMK2A = molecular target: T19, CAMK2A (Homo sapiens, UniProt Q9UQM7)
# T19 construct: purchased DiscoveRx KINOMEscan
# Procedure, shortened: as §1
# CAMKK2 = molecular target: T20, CAMKK2 (Homo sapiens, UniProt Q96RR4)
# T20 construct: purchased DiscoveRx KINOMEscan
# Procedure, shortened: as §1
# ABL1-nonphosphorylated = molecular target: T21, ABL1-nonphosphorylated (Homo sapiens, UniProt P00519)
# T21 construct: purchased DiscoveRx KINOMEscan
# Procedure, shortened: as §1
# TAOK1 = molecular target: T22, TAOK1 (Homo sapiens, UniProt Q7L7X3)
# T22 construct: purchased DiscoveRx KINOMEscan
# Procedure, shortened: as §1
# CSNK2A2 = molecular target: T23, CSNK2A2 (Homo sapiens, UniProt P19784)
# T23 construct: purchased DiscoveRx KINOMEscan
# Procedure, shortened: as §1
# [2] = molecular target: T24, RSK3(Kin.Dom.2-C-terminal) (Homo sapiens, UniProt Q15349)
# T24 construct: RSK3(Kin.Dom.2-C-terminal); purchased DiscoveRx KINOMEscan
# Procedure, shortened: as §1
# EPHA8 = molecular target: T25, EPHA8 (Homo sapiens, UniProt P29322)
# T25 construct: purchased DiscoveRx KINOMEscan
# Procedure, shortened: as §1
# MEK3 = molecular target: T26, MEK3 (Homo sapiens, UniProt P46734)
# T26 construct: purchased DiscoveRx KINOMEscan
# Procedure, shortened: as §1
# JNK1 = molecular target: T27, JNK1 (Homo sapiens, UniProt P45983)
# T27 construct: purchased DiscoveRx KINOMEscan
# Procedure, shortened: as §1
# MRCKB = molecular target: T28, MRCKB (Homo sapiens, UniProt Q9Y5S2)
# T28 construct: purchased DiscoveRx KINOMEscan
# Procedure, shortened: as §1
# [3] = molecular target: T29, RPS6KA5(Kin.Dom.1-N-terminal) (Homo sapiens, UniProt O75582)
# T29 construct: RPS6KA5(Kin.Dom.1-N-terminal); purchased DiscoveRx KINOMEscan
# Procedure, shortened: as §1
# T6 sequence (P08581 25-1390): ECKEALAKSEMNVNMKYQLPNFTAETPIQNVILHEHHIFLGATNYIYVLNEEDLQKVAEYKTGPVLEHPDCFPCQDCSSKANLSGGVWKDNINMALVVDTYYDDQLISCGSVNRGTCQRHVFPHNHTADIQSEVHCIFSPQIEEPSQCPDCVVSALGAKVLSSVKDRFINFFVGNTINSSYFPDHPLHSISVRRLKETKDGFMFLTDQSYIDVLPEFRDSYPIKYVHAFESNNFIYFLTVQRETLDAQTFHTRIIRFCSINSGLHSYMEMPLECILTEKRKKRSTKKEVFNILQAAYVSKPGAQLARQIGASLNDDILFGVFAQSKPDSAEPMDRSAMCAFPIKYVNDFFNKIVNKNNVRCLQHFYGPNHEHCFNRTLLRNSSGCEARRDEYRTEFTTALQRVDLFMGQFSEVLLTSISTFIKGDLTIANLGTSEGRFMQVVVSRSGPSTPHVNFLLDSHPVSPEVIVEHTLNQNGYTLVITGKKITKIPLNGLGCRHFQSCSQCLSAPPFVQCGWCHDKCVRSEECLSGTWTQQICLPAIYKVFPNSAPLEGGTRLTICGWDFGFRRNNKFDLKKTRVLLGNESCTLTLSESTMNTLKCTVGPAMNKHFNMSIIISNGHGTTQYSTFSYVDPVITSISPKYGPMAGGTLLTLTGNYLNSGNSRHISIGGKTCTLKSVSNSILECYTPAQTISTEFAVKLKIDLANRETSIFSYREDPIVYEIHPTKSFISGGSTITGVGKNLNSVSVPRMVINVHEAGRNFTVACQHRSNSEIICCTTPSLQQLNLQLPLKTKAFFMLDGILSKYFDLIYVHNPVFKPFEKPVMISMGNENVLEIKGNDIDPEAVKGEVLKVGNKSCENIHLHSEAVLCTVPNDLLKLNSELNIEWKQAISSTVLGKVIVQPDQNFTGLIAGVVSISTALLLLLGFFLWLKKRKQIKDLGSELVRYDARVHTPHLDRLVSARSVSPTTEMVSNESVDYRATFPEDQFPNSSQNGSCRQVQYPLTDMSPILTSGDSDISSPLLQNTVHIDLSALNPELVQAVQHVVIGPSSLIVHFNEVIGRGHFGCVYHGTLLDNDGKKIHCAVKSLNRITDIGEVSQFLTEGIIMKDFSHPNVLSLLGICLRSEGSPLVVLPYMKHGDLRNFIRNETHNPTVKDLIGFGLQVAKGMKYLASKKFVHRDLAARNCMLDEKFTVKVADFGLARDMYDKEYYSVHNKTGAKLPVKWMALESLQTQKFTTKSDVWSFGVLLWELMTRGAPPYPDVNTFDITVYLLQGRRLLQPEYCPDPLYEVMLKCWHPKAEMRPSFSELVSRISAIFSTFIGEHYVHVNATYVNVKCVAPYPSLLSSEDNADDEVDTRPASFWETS
# T7 sequence (Q06418 41-890): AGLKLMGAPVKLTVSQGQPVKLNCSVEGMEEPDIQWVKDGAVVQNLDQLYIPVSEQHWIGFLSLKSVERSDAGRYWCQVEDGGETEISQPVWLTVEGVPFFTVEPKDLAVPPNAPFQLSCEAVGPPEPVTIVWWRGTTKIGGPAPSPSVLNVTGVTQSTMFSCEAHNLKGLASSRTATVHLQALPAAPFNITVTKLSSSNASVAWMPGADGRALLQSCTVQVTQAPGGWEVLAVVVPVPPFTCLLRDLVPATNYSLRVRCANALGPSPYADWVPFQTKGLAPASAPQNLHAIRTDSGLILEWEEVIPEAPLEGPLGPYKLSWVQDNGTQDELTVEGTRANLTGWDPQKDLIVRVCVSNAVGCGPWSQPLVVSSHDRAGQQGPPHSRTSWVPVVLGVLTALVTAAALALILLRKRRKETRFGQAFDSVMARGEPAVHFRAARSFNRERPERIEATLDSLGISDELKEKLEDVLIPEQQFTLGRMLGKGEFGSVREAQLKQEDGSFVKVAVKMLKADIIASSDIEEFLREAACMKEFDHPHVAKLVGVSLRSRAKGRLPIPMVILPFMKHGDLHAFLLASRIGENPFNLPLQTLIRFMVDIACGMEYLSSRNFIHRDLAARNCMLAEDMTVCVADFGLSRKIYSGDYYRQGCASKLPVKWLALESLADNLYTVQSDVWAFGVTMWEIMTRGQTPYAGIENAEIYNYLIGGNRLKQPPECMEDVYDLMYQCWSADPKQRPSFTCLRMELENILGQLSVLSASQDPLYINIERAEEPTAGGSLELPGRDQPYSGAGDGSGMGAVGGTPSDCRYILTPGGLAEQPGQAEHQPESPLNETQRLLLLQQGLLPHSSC
# T22 sequence (Q7L7X3 whole entry): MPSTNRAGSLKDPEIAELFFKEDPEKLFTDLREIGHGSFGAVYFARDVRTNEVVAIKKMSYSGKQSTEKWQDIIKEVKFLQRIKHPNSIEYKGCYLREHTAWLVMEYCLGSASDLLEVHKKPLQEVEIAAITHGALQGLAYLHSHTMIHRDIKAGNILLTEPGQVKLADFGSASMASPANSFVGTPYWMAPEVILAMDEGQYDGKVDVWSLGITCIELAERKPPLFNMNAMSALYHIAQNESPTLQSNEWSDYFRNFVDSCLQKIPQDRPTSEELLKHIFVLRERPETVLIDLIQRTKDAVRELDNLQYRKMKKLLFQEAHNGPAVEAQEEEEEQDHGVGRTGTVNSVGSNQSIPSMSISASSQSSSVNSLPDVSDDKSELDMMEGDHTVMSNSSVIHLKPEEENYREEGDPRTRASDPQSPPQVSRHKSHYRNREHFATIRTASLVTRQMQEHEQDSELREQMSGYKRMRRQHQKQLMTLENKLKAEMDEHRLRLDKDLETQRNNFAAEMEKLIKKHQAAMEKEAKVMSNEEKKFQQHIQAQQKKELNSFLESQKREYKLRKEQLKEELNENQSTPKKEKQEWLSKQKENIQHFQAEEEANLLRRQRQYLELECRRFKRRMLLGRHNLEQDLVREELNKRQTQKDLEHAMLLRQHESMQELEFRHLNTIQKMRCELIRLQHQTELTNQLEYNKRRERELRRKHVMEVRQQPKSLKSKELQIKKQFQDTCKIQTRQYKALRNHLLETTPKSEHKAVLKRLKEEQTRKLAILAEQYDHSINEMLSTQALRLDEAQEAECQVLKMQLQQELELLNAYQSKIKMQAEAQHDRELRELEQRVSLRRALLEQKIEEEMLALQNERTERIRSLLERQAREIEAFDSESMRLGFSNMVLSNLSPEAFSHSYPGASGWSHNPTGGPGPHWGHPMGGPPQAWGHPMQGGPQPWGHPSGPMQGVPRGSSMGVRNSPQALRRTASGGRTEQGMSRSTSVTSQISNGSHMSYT
# T14 sequence (Q8WTQ7 whole entry): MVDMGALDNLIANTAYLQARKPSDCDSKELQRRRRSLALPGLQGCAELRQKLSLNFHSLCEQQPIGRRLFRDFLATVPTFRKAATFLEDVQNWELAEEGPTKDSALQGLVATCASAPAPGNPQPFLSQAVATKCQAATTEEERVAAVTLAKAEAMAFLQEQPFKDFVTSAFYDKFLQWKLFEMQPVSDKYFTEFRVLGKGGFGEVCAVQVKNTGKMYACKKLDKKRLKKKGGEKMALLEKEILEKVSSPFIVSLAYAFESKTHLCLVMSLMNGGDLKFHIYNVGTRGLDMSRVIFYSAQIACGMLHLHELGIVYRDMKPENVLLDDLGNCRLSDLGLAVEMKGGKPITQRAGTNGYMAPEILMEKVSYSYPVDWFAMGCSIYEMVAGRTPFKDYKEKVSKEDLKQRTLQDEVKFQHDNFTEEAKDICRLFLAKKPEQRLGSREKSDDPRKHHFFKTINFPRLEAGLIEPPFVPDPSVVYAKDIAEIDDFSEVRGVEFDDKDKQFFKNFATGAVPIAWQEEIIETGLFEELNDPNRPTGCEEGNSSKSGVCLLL
# T5 sequence (O14965 whole entry): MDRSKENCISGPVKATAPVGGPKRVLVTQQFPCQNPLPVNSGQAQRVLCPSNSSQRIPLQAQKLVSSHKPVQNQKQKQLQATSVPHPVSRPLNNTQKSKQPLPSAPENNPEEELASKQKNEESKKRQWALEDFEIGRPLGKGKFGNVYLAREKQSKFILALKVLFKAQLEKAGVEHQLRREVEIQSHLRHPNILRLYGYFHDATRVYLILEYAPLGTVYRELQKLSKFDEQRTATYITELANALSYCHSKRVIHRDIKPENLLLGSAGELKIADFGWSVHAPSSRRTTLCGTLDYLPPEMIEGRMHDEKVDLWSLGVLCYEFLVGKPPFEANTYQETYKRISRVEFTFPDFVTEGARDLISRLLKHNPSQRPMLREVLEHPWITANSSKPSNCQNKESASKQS
# T20 sequence (Q96RR4 whole entry): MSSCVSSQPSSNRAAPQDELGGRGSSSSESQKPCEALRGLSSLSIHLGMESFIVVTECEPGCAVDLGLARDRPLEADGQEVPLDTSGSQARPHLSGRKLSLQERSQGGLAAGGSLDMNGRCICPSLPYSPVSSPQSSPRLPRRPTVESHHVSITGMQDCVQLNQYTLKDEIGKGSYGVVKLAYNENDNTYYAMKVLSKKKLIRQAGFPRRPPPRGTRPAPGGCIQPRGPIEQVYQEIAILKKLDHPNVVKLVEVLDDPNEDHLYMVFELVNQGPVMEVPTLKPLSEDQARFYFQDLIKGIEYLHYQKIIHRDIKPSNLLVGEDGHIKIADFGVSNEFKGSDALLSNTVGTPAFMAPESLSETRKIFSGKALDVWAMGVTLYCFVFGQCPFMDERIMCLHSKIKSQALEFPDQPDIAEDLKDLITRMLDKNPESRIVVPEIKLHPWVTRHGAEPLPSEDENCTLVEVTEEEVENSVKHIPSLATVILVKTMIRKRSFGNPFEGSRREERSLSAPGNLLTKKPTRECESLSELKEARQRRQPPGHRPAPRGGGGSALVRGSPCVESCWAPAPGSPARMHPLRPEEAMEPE
# T9 sequence (P23458 854-1154 limits assumed): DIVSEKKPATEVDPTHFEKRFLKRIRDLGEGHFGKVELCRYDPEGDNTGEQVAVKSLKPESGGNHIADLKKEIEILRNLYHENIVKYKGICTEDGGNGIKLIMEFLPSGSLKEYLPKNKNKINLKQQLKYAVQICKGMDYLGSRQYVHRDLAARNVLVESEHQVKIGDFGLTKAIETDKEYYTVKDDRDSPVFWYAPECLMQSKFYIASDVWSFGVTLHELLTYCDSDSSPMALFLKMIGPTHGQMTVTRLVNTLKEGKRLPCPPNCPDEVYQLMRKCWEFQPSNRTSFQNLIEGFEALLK
smiles,measurement,setting,value
"Cc1ccc(C2=Nc3cccnc3S(=O)(=O)c3ccccc32)cc1 [TBPT, 6-(p-tolyl)benzo[f] pyrido[2,3-b][1,4] thiazepine 11,11-dioxide]",remaining binding at 5 µM,PRKCH; 5 μM,82%
same,remaining binding at 10 µM,PRKCH; 10 μM,100%
same,remaining binding at 5 µM,QSK; 5 μM,76%
same,remaining binding at 10 µM,QSK; 10 μM,100%
same,remaining binding at 5 µM,CHEK1; 5 μM,100%
same,remaining binding at 10 µM,CHEK1; 10 μM,100%
same,remaining binding at 5 µM,ERK2; 5 μM,76%
same,remaining binding at 10 µM,ERK2; 10 μM,92%
same,remaining binding at 5 µM,AURKA; 5 μM,100%
same,remaining binding at 10 µM,AURKA; 10 μM,100%
same,remaining binding at 5 µM,MET; 5 μM,100%
same,remaining binding at 10 µM,MET; 10 μM,92%
same,remaining binding at 5 µM,TYRO3; 5 μM,99%
same,remaining binding at 10 µM,TYRO3; 10 μM,100%
same,remaining binding at 5 µM,ROS1; 5 μM,100%
same,remaining binding at 10 µM,ROS1; 10 μM,100%
same,remaining binding at 5 µM,[1]; 5 μM,95%
same,remaining binding at 10 µM,[1]; 10 μM,89%
same,remaining binding at 5 µM,ACVR1B; 5 μM,98%
same,remaining binding at 10 µM,ACVR1B; 10 μM,91%
same,remaining binding at 5 µM,PAK3; 5 μM,100%
same,remaining binding at 10 µM,PAK3; 10 μM,100%
same,remaining binding at 5 µM,FLT3; 5 μM,100%
same,remaining binding at 10 µM,FLT3; 10 μM,68%
same,remaining binding at 5 µM,LRRK2; 5 μM,94%
same,remaining binding at 10 µM,LRRK2; 10 μM,100%
same,remaining binding at 5 µM,GRK7; 5 μM,100%
same,remaining binding at 10 µM,GRK7; 10 μM,100%
same,remaining binding at 5 µM,CIT; 5 μM,98%
same,remaining binding at 10 µM,CIT; 10 μM,97%
same,remaining binding at 5 µM,PIP5K2B; 5 μM,100%
same,remaining binding at 10 µM,PIP5K2B; 10 μM,100%
same,remaining binding at 5 µM,p38-gamma; 5 μM,100%
same,remaining binding at 10 µM,p38-gamma; 10 μM,88%
same,remaining binding at 5 µM,EPHA4; 5 μM,100%
same,remaining binding at 10 µM,EPHA4; 10 μM,96%
same,remaining binding at 5 µM,CAMK2A; 5 μM,100%
same,remaining binding at 10 µM,CAMK2A; 10 μM,87%
same,remaining binding at 5 µM,CAMKK2; 5 μM,97%
same,remaining binding at 10 µM,CAMKK2; 10 μM,83%
same,remaining binding at 5 µM,ABL1-nonphosphorylated; 5 μM,89%
same,remaining binding at 10 µM,ABL1-nonphosphorylated; 10 μM,100%
same,remaining binding at 5 µM,TAOK1; 5 μM,100%
same,remaining binding at 10 µM,TAOK1; 10 μM,100%
same,remaining binding at 5 µM,CSNK2A2; 5 μM,100%
same,remaining binding at 10 µM,CSNK2A2; 10 μM,100%
same,remaining binding at 5 µM,[2]; 5 μM,100%
same,remaining binding at 10 µM,[2]; 10 μM,100%
same,remaining binding at 5 µM,EPHA8; 5 μM,96%
same,remaining binding at 10 µM,EPHA8; 10 μM,93%
same,remaining binding at 5 µM,MEK3; 5 μM,100%
same,remaining binding at 10 µM,MEK3; 10 μM,100%
same,remaining binding at 5 µM,JNK1; 5 μM,100%
same,remaining binding at 10 µM,JNK1; 10 μM,85%
same,remaining binding at 5 µM,MRCKB; 5 μM,89%
same,remaining binding at 10 µM,MRCKB; 10 μM,92%
same,remaining binding at 5 µM,[3]; 5 μM,100%
same,remaining binding at 10 µM,[3]; 10 μM,100%
